Source: patent US20080221116A1, “ISOXAZOLINE ALPHA 1a/1d ADRENORECEPTOR ANTAGONISTS” (priority 2006, published 2008)
“And” between values parts separate entries of the source, which are not always exact repeats. Equal values may be shown once. Read-outs that look alike come from different tables or passages of the source.

Columns and labels:
Conditions in all cases: COS-7 membranes
[1] = target: T1, α1a-AR (Homo sapiens, UniProt P35348); experiment: α1-Adrenergic Receptor Binding Assay, 125I-HEAT radio-ligand binding, transfected COS-7 cell membranes, α1a subtype
T1 construct: expressed in transfected cells; host or cells: COS-7 cells (African Green monkey kidney), membranes
T1 sequence (P35348 1-466): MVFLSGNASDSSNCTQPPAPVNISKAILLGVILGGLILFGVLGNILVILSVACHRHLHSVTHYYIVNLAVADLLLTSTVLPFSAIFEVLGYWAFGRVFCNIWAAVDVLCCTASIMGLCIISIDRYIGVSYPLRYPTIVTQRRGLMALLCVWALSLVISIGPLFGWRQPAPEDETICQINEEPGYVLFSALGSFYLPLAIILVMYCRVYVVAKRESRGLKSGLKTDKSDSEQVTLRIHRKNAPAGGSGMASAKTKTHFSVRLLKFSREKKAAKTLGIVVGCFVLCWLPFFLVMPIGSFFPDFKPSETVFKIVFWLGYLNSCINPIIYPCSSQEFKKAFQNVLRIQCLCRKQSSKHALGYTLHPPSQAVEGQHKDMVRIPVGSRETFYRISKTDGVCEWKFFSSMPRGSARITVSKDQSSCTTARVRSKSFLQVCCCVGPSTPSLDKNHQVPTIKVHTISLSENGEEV
Protocol: (§1) Membranes were prepared from COS-7 cells (African Green monkey kidney SV40-transformed cells) that had been transfected with one of the three α1-AR subtypes by the following method: COS cells from ten 100 mm tissue culture plates were scraped into a 5 ml volume of TE (a mixture of 50 mM tris(hydroxymethyl)aminomethane hydrochloride (Tris-HCl) and 5 mM ethylenediaminetetraacetic acid (EDTA) at pH 7.4). The cell suspension was disrupted with a Brinkman Polytron (at a setting of 8) for 10 sec. The disrupted cells were centrifuged at 1000×g for 10 min at 4° C. Supernatants were centrifuged at 34,500×g for 20 min at 4° C. The membrane pellets were suspended in a 2 ml volume of TNE (a mixture of 50 mM Tris-HCl, 5 mM EDTA and 150 mM NaCl at pH7.4). An aliquot of the membrane suspension was stored at −70° C. until use. The protein concentration was determined using a BioRad “DC” protein assay kit following membrane solubilization with Triton X-100.
(§2) Triplicate determinations of radio-ligand binding in the presence of increasing concentrations of testing compound were made. The reagents were added to 96-well polypropylene plate wells. Each assay well contained 140 μL TNE, 25 μL 125′-2-(β-4-hydroxyphenyl)ethylaminomethyltetralone (^125I-HEAT) (specific activity 2200 Ci/mmol, Dupont-New England Nuclear, […] final), 10 μL testing compound dissolved in dimethyl sulfoxide (DMSO) ([…] to 10 μM in half-log increments, final), and 25 μL appropriate α1-AR membrane subtype suspension in TNE (0.5 ng/μL for the α1a and α1b subtypes and 13 ng/μL for the α1d subtype). The plate was incubated at rt for 1 hr. The contents of the wells were filtered through a glass filter (type C) (GF/C) membrane Unifilter plate (Packard Instruments) using the Packard Filtermate cell harvester. The filter plates were dried in a vacuum oven for 30 min at 40° C. 25 μL Microscint 20 liquid scintillation fluid (Packard Instuments) was added to each well. The radioactive content was analyzed in the TopCount microplate scintillation counter (Packard Instruments).
(§3) The Ki values (in nM) shown in Table 1 were determined using GraphPad Prism software.

[2] = target: T2, α1b-AR (Homo sapiens, UniProt P35368); experiment: α1-Adrenergic Receptor Binding Assay, 125I-HEAT radio-ligand binding, transfected COS-7 cell membranes, α1b subtype
T2 construct: expressed in transfected cells; host or cells: COS-7 cells (African Green monkey kidney), membranes
T2 sequence (P35368 1-520): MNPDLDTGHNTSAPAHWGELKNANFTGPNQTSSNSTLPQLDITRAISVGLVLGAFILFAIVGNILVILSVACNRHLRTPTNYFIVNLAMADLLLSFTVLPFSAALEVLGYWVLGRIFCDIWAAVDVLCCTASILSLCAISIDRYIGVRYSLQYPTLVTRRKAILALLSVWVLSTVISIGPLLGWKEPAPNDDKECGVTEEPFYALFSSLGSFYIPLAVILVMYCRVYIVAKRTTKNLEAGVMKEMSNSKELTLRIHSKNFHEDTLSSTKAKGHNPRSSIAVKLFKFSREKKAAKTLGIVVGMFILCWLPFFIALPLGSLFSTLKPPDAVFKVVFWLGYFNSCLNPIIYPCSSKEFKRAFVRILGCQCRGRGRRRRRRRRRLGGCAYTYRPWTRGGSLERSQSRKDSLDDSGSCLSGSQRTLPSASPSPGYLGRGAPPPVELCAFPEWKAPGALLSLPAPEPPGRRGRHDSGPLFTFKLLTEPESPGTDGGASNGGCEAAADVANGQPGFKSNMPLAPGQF
Protocol: as §1, §2, §3

[3] = target: T3, α1d-AR (Homo sapiens, UniProt P25100); experiment: α1-Adrenergic Receptor Binding Assay, 125I-HEAT radio-ligand binding, transfected COS-7 cell membranes, α1d subtype
T3 construct: expressed in transfected cells; host or cells: COS-7 cells (African Green monkey kidney), membranes
T3 sequence (P25100 1-572): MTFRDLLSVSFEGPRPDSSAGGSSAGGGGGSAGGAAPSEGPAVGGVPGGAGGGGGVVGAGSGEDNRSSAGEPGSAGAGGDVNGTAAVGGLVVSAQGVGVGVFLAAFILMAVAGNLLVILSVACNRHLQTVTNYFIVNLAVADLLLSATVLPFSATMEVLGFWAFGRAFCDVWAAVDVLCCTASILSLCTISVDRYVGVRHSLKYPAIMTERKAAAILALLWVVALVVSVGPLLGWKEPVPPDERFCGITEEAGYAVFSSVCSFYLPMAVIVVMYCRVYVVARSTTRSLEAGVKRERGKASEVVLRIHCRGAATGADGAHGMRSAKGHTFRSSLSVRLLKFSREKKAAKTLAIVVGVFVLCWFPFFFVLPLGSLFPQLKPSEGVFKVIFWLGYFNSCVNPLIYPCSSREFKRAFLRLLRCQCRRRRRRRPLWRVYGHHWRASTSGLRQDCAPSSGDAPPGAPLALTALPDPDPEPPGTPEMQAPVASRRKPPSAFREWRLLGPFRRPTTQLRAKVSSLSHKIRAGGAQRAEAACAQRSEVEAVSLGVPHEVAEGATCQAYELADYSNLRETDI
Protocol: as §1, §2, §3

[4] = average value, read-out: Alpha 1 Ki α1a (1) Average Value
[5] = individual values, read-out: Alpha 1 Ki α1a (2) Individual Values
[6] = average value, read-out: Alpha 1 Ki α1b (1) Average Value
[7] = individual values, read-out: Alpha 1 Ki α1b (2) Individual Values
[8] = average value, read-out: Alpha 1 Ki α1d (1) Average Value
[9] = individual values, read-out: Alpha 1 Ki α1d (2) Individual Values

Row | SMILES | Ki [1, 4] [nM] | Ki [1, 5] | Ki [2, 6] [nM] | Ki [2, 7] | Ki [3, 8] [nM] | Ki [3, 9]
1 | CC(C)Oc1ccccc1N1CCN(CC2CC(C(=O)N3CCc4cc(Cl)ccc43)=NO2)CC1 (stereo not drawn) [Compound 16, (5-chloro-2,3-dihydro-indol-1-yl)-{5-[4-(2-isopropoxy-phenyl)-piperazin-1-ylmethyl]-4,5-dihydro-isoxazol-3-yl}-methanone] | 8.3 | 8.3 nM | 133 | 133 nM | 4.7 | 4.7 nM
2 | CC(C)Oc1ccccc1N1CCN(CC2CC(C(=O)N3CCN(c4ccccc4OC(C)C)CC3)=NO2)CC1 (stereo not drawn) [Compound 17, [4-(2-isopropoxy-phenyl)-piperazin-1-yl]-{5-[4-(2-isopropoxy-phenyl)-piperazin-1-ylmethyl]-4,5-dihydro-isoxazol-3-yl}-methanone] | 16.3 | 16.3 nM | 187 | 187 nM | 6.6 | 6.6 nM
3 | CC(C)Oc1ccccc1N1CCN(CC2CC(C(=O)N3CCC(C(=O)c4ccc(F)cc4)CC3)=NO2)CC1 (stereo not drawn) [Compound 18, [4-(4-fluoro-benzoyl)-piperidin-1-yl]-{5-[4-(2-isopropoxy-phenyl)-piperazin-1-ylmethyl]-4,5-dihydro-isoxazol-3-yl}-methanone] | 7.9 | 9.9 nM and 5.9 nM | 423 | 423 nM | 21.5 | 22 nM and 21 nM
4 | CC(C)Oc1ccccc1N1CCN(CC2CC(C(=O)N3CC(C)(C)c4cc(Br)ccc43)=NO2)CC1 (stereo not drawn) [Compound 19, (5-bromo-3,3-dimethyl-2,3-dihydro-indol-1-yl)-{5-[4-(2-isopropoxy-phenyl)-piperazin-1-ylmethyl]-4,5-dihydro-isoxazol-3-yl}-methanone] | 13 | 13 nM | 280 | 302 nM and 258 nM | 0.6 | 0.4 nM and 0.8 nM
5 | CC(C)Oc1ccccc1N1CCN(CC2CC(C(=O)N3CCc4cc(F)ccc43)=NO2)CC1 (stereo not drawn) [Compound 20, (5-fluoro-2,3-dihydro-indol-1-yl)-{5-[4-(2-isopropoxy-phenyl)-piperazin-1-ylmethyl]-4,5-dihydro-isoxazol-3-yl}-methanone] | 2.23 | 1.35 nM and 3.1 nM | 112 | 97.2 nM and 126 nM | 0.623 | 0.145 nM and 1.1 nM

Second part, the compound after the results:

Row | Ki [1, 4] [nM] | Ki [1, 5] | Ki [2, 6] [nM] | Ki [2, 7] | Ki [3, 8] [nM] | Ki [3, 9] | SMILES
6 | 5.25 | 3.2 nM and 7.3 nM | 224 | 288 nM and 160 nM | 7.65 | 5.5 nM and 9.8 nM | CC(C)Oc1ccccc1N1CCN(CC2CC(C(=O)N3CCC(C(=O)c4ccccc4)CC3)=NO2)CC1 (stereo not drawn) [Compound 21, (4-benzoyl-piperidin-1-yl)-{5-[4-(2-isopropoxy-phenyl)-piperazin-1-ylmethyl]-4,5-dihydro-isoxazol-3-yl}-methanone]
7 | 2.02 | 2.54 nM and 1.5 nM | 80.4 | 73 nM and 87.7 nM | 1.81 | 1.5 nM and 2.13 nM | CC(=O)N1CCc2cc(NC(=O)C3=NOC(CN4CCN(c5ccccc5OC(C)C)CC4)C3)ccc21 (stereo not drawn) [Compound 22, 5-[4-(2-isopropoxy-phenyl)-piperazin-1-ylmethyl]-4,5-dihydro-isoxazole-3-carboxylic acid (1-acetyl-2,3-dihydro-1H-indol-5-yl)-amide]
8 | 5.65 | 5.65 nM | 259 | 259 nM | 6.56 | 6.56 nM | COc1cc2c(cc1OC)N(C(=O)C1=NOC(CN3CCN(c4ccccc4OC(C)C)CC3)C1)CC2 (stereo not drawn) [Compound 23, (5,6-dimethoxy-2,3-dihydro-indol-1-yl)-{5-[4-(2-isopropoxy-phenyl)-piperazin-1-ylmethyl]-4,5-dihydro-isoxazol-3-yl}-methanone]
9 | 5.46 | 5.46 nM | 101 | 101 nM | 3.95 | 3.95 nM | CC(=O)N1CCc2ccc(NC(=O)C3=NOC(CN4CCN(c5ccccc5OC(C)C)CC4)C3)cc21 (stereo not drawn) [Compound 24, 5-[4-(2-isopropoxy-phenyl)-piperazin-1-ylmethyl]-4,5-dihydro-isoxazole-3-carboxylic acid (1-acetyl-2,3-dihydro-1H-indol-6-yl)-amide]
10 | 3.5 | 3.5 nM | 71 | 71 nM | 0.12 | 0.12 nM | Cc1ccc2c(c1)CCN2C(=O)C1=NOC(CN2CCN(c3ccccc3OC(C)C)CC2)C1 (stereo not drawn) [Compound 25, {5-[4-(2-isopropoxy-phenyl)-piperazin-1-ylmethyl]-4,5-dihydro-isoxazol-3-yl}-(5-methyl-2,3-dihydro-indol-1-yl)-methanone]
11 | 6.7 | 6.7 nM | 258 | 258 nM | 11 | 11 nM | CC(C)Oc1ccccc1N1CCN(CC2CC(C(=O)N3CCCc4ccccc43)=NO2)CC1 (stereo not drawn) [Compound 26, (3,4-dihydro-2H-quinolin-1-yl)-{5-[4-(2-isopropoxy-phenyl)-piperazin-1-ylmethyl]-4,5-dihydro-isoxazol-3-yl}-methanone]
12 | 11.6 | 11.6 nM | 219 | 219 nM | 6.5 | 6.5 nM | CC(C)Oc1ccccc1N1CCN(CC2CC(C(=O)N3CCC(Cc4ccccc4)CC3)=NO2)CC1 (stereo not drawn) [Compound 27, (4-benzyl-piperidin-1-yl)-{5-[4-(2-isopropoxy-phenyl)-piperazin-1-ylmethyl]-4,5-dihydro-isoxazol-3-yl}-methanone]
13 | 3 | 3 nM | 691 | 691 nM | 27.2 | 27.2 nM | CC(C)Oc1ccccc1N1CCN(CC2CC(C(=O)N3CCOCC3)=NO2)CC1 (stereo not drawn) [Compound 28, {5-[4-(2-isopropoxy-phenyl)-piperazin-1-ylmethyl]-4,5-dihydro-isoxazol-3-yl}-morpholin-4-yl-methanone]
